Test results published in the NIST ThermoML archive (doi:10.1021/je401066j).
± gives the expanded uncertainty stated by the source.

Conditions: 101 kPa, Liquid mixture 1, Drop volume

interfacial tension (288.2 K): 51.4 ± 0.4 mN/m | interfacial tension (293.2 K): 51 ± 0.4 mN/m | interfacial tension (298.2 K): 50.7 ± 0.4 mN/m | interfacial tension (303.2 K): 50.4 ± 0.4 mN/m | interfacial tension (308.2 K): 50.2 ± 0.4 mN/m
Compound: CCCCCC [hexane] + O
